Test results as given in US20130203084A1, “SPECIFIC DETECTION OF HUMAN CHORIONIC GONADOTROPIN BETA SUBUNIT TYPE II PRODUCED BY TROPHOBLASTIC AND NEOPLASTIC CELLS” (Universite Paris Descartes, priority 2010, published 2013).

System: binding of 125I-HCGβ to monoclonal antibody FBT11-II
Experiment: Competitive inhibition assay with synthetic peptides (125I-HCGβ tracer)
Settings: increasing concentrations of unlabeled peptide; 4° C. for 18 h; FIG. 2
Description: Competitive inhibition assays were performed as previously described (20). Briefly, ^125I labelled HCGβ was employed as the tracer. All experiments were performed in 50 mM phosphate buffer, pH 7.5, containing 154 mM NaCl, 0.02% sodium azide, and 1% bovine serum albumin. First, we determined the dilution of FBT11-II which produced a 50% binding to ^125I-HCGβ (30,000 cpm) in the absence of peptide. Then, competitive inhibition assays were performed with the defined dilution of antibody. Displacement curves were generated in the presence of increasing concentrations of unlabeled peptides as follows: 100 μl of ^125I—HCGIβ, 100 μl of monoclonal antibody, and 50 μl of the competitive inhibitor were incubated simultaneously at 4° C. for 18 h. The antigen-antibody complex was then precipitated by adding normal human serum diluted (1:3) in phosphate buffer (100 μl) and 1 ml of 20% polyethylene glycol. After centrifugation, the pellet was counted.
Since it was previously shown that FBT11 recognizes residues 1 through 7 and 82 through 92 of the free HCGβ subunit (20), in this study we examined whether the differences in the N-terminal sequence of HCGβ altered the recognition of FBT11-II. We performed inhibition assays with peptides spanning residues 1 through 7 to determine mAb FBT11-II specificity. We used three peptides analogous to sequences 1-7 of HCGβ encoded by type I gene (SREMLRP, SEQ ID NO: 4), 1-7 of HCGβ encoded by type II genes (SKEPLRP, SEQ ID NO: 3) and 1-7 of LHβ (SREPLRP, SEQ ID NO: 5) (FIG. 2). First, we determined the dilution of FBT11-II which produced a 50% binding to ^125I-HCGβ in the absence of peptide. Then, competitive inhibition assays were performed with the defined dilution of antibody. Displacement curves were generated in the presence of increasing concentrations of unlabeled peptides.

| Substance | Inhibition of 125I-HCGβ binding to antibody FBT11-II (displacement of bound tracer) |
| --- | --- |
| SKEPLRP (Synthetic 7-mer peptides corresponding to residues 1 through 7 of HCGbeta encoded by type II genes beta3, beta5 and beta8) | highest potency |
| SREMLRP (Synthetic 7-mer peptides corresponding to residues 1 through 7 of HCGbeta encoded by type I gene beta7) | unable to inhibit |
| SREPLRP (Synthetic 7-mer peptides corresponding to residues 1 through 7 of the LHbeta gene) | to a lesser degree than SKEPLRP |
